Measurements from ChEMBL document CHEMBL1201862, “PubChem BioAssay data set” (2004).
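The compound was tested at five concentrations on cells cultured in 96-well plates, with a 48-hour exposure period. Here, GI50 denotes the concentration required for 50% inhibition of growth.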 The source made the active and inactive calls. Cut-off read from the data, not from the text of the source: active = GI50 up to about 1.1 µM and inactive = higher.

Tests used:
Experiment in all cases: growth of human tumour cells (NCI), 48 h
A549 = tested on: A549
DLD-1 = tested on: DLD-1
DMS-273 = tested on: DMS-273
HOP-18 = tested on: HOP-18
HOP-92 = tested on: HOP-92
KM-20L2 = tested on: KM-20L2
MOLT-4 = tested on: MOLT-4
NCI-H226 = tested on: NCI-H226
NCI/ADR-RES = tested on: NCI/ADR-RES
OVCAR-3 = tested on: OVCAR-3
RPMI-8226 = tested on: RPMI-8226
SF-295 = tested on: SF-295
SF-539 = tested on: SF-539
SK-MEL-28 = tested on: SK-MEL-28
SNB-78 = tested on: SNB-78
BT-549 = tested on: BT-549
DU-145 = tested on: DU-145
MDA-MB-231 = tested on: MDA-MB-231
MDA-N = tested on: MDA-N
T47D = tested on: T47D

Compound | GI50 (A549) | GI50 (DLD-1) | GI50 (DMS-273) | GI50 (HOP-18) | GI50 (HOP-92) | GI50 (KM-20L2) | GI50 (MOLT-4) | GI50 (NCI-H226) | GI50 (NCI/ADR-RES) | GI50 (OVCAR-3) | GI50 (RPMI-8226) | GI50 (SF-295) | GI50 (SF-539) | GI50 (SK-MEL-28) | GI50 (SNB-78) | GI50 (BT-549) | GI50 (DU-145) | GI50 (MDA-MB-231) | GI50 (MDA-N) | GI50 (T47D)
O=C1CCCCN1 | > 1120 µM (inactive) | 879 µM (inactive) | > 1120 µM (inactive) | 232 µM (inactive) | > 1120 µM (inactive) | > 1120 µM (inactive) | 706 µM (inactive) | 635 µM (inactive) | 248 µM (inactive) | > 1120 µM (inactive) | > 1120 µM (inactive) | > 1120 µM (inactive) | > 1120 µM (inactive) | > 1120 µM (inactive) | > 1120 µM (inactive) | – | – | – | – | –
O=NN1C(c2ccccc2)CNC(=O)CC1c1ccccc1 (stereo not drawn) | 44.5 µM (inactive) | 44.2 µM (inactive) | 27.4 µM (inactive) | > 100 µM (inactive) | 42.8 µM (inactive) | 25.3 µM (inactive) | 52.7 µM (inactive) | 68.5 µM (inactive) | 28.7 µM (inactive) | 22.8 µM (inactive) | 34 µM (inactive) | 32.7 µM (inactive) | 35.4 µM (inactive) | 57.3 µM (inactive) | > 91.4 µM (inactive) | – | – | – | – | –
COc1ccc(-c2c3c(nc4nc(SC)nc(SC)c24)CCCC3)cc1OC | > 100 µM (inactive) | – | – | – | 40.2 µM (inactive) | – | 33.4 µM (inactive) | 56.6 µM (inactive) | – | 65.5 µM (inactive) | 45.8 µM (inactive) | 57.5 µM (inactive) | > 100 µM (inactive) | 59.7 µM (inactive) | – | > 100 µM (inactive) | > 100 µM (inactive) | 40.6 µM (inactive) | 29.9 µM (inactive) | 47.6 µM (inactive)
NC12CCC(CC1=O)C2 (stereo not drawn) | > 100 µM (inactive) | – | – | – | > 100 µM (inactive) | – | > 100 µM (inactive) | > 100 µM (inactive) | > 100 µM (inactive) | > 100 µM (inactive) | > 100 µM (inactive) | > 100 µM (inactive) | > 100 µM (inactive) | > 100 µM (inactive) | – | – | > 100 µM (inactive) | > 100 µM (inactive) | > 100 µM (inactive) | > 100 µM (inactive)
CC(=O)N1N=C(c2ccc3ccccc3c2O)CC1c1cccs1 (stereo not drawn) | 13.9 µM (inactive) | – | – | – | 33.7 µM (inactive) | – | 4.26 µM (inactive) | 40.1 µM (inactive) | 13.6 µM (inactive) | 7.96 µM (inactive) | 6.55 µM (inactive) | 21.7 µM (inactive) | 22.2 µM (inactive) | 37.2 µM (inactive) | – | 19.5 µM (inactive) | 34 µM (inactive) | 20.6 µM (inactive) | 20.2 µM (inactive) | 11.6 µM (inactive)
COc1ccc(C[C@H](N)C(=O)N2C[C@H](CO)C[C@H](n3cnc4c(N(C)C)ncnc43)C2)cc1 | > 100 µM (inactive) | > 100 µM (inactive) | > 100 µM (inactive) | 45.7 µM (inactive) | 57 µM (inactive) | > 100 µM (inactive) | > 100 µM (inactive) | > 100 µM (inactive) | – | > 100 µM (inactive) | > 100 µM (inactive) | – | > 100 µM (inactive) | > 100 µM (inactive) | – | – | – | – | – | –
O=c1cc(-c2nc3ccccc3[nH]2)[nH]c2nc(-c3nc4ccccc4[nH]3)cc(-c3ccc(Cl)cc3)c12 | 24.4 µM (inactive) | – | – | – | 5.52 µM (inactive) | – | 19.4 µM (inactive) | 16.9 µM (inactive) | 28.4 µM (inactive) | 19.3 µM (inactive) | 11.5 µM (inactive) | 21.5 µM (inactive) | 15.9 µM (inactive) | – | – | 35.9 µM (inactive) | 32.8 µM (inactive) | 15.8 µM (inactive) | 20.5 µM (inactive) | 14.4 µM (inactive)
O=C1CSC(C(/N=N/c2ccc(Cl)cc2)c2nc3ccccc3[nH]2)=N1 (stereo not drawn) | > 100 µM (inactive) | 65.5 µM (inactive) | 60.4 µM (inactive) | – | 54 µM (inactive) | > 100 µM (inactive) | 6.79 µM (inactive) | 0.0105 µM (active) | – | 36.9 µM (inactive) | > 100 µM (inactive) | 38.8 µM (inactive) | 23.4 µM (inactive) | 35.5 µM (inactive) | – | – | – | – | – | –
COC1C(=[N+]=[N-])C(=O)NC(=O)N1C1OC(COC(c2ccccc2)(c2ccccc2)c2ccccc2)C(O)C1O (stereo not drawn) | 17.5 µM (inactive) | 17.3 µM (inactive) | – | 21.1 µM (inactive) | – | 17.2 µM (inactive) | 18.2 µM (inactive) | 17.5 µM (inactive) | – | 18.7 µM (inactive) | 25.2 µM (inactive) | 18 µM (inactive) | 19.9 µM (inactive) | 16.4 µM (inactive) | 18 µM (inactive) | – | – | – | – | –
